Active and inactive are the calls of the source. The rule behind the calls is not given here.
Key:
[1] = tested on: HeLa; assay: Induction of autophagy in human HeLa cells assessed as increase in ATG5 protein level at 0.6 to 1.2 uM incubated for 24 hrs by Western blot analysis; assay type: functional, cell-based; settings: dose 0.6-1.2 µM
[2] = tested on: Ca-Ski; assay: Induction of ferroptosis in human Ca Ski cells assessed as increase in lipid ROS level by measuring rightward shift in fluorescence intensity at 0.5 uM measured after 24 hrs by C11-BODIPY-581/591 staining based flow cytometric analysis; assay type: functional, cell-based
[3] = tested on: HepG2; assay: Antiproliferative activity against human HepG2 cells assessed as reduction in cell optical density incubated for 48 hrs by MTT assay; assay type: functional, cell-based; settings: HepG2, 48 h
[4] = tested on: Ca-Ski; assay: Inhibition of cell migration in human Ca Ski cells at 0.5 to 1 uM measured after 24 hrs by transwell migration assay; assay type: functional, cell-based; settings: dose 0.5-1 µM
[5] = tested on: HeLa; assay: Induction of apoptosis in human HeLa cells assessed as late apoptotic cells at 1.2 uM incubated for 24 hrs by Annexin V-FITC/PI staining based flow cytometric analysis (reference value: 0.94 %); assay type: functional
[6] = tested on: Ca-Ski; assay: Antiproliferative activity against human Ca Ski cells assessed as inhibition of cell viability incubated for 24 hrs by CCK8 assay; assay type: functional, cell-based
[7] = tested on: HeLa; assay: Effect on cleaved PARP expression level in human HeLa cells at 0.3 to 1.2 uM incubated for 24 hrs by Western blot analysis; assay type: functional, cell-based; settings: dose 0.3-1.2 µM
[8] = tested on: HeLa; assay: Effect on GPX4 protein expression level in human HeLa cells at 0.6 uM incubated for 24 hrs by Western blot analysis; assay type: functional, cell-based
[9] = tested on: Ca-Ski; assay: Induction of apoptosis in human Ca Ski cells assessed as necrotic cells at 1 uM preincubated with Z-VAD-FMK for 1 hrs followed by compound addition and measured after 24 hrs by Annexin V-FITC/PI staining based flow cytometric analysis (reference value: 1.54 %); assay type: functional
[10] = tested on: Ca-Ski; assay: Effect on cleaved caspase 3 expression level in Bax deficient human Ca Ski cells at 0.5 to 1 uM incubated for 24 hrs by Western blot analysis; assay type: functional, cell-based; settings: dose 0.5-1 µM
[11] = tested on: HeLa; assay: Effect on apoptosis pathway related gene expression in human HeLa cells at 1.2 uM incubated for 24 hrs by GSVA enrichment analysis; assay type: functional, cell-based
[12] = tested on: Ca-Ski; assay: Induction of morphological changes in human Ca Ski cells assessed as increase in inflated cell appearance at 0.5 to 2 uM by microphotographic analysis; assay type: functional, cell-based; settings: dose 0.5-2 µM
[13] = tested on: SiHa; assay: Induction of morphological changes in human SiHa cells assessed as decrease in cell adherence to culture dish at 0.5 to 2 uM by microphotographic analysis; assay type: functional, cell-based; settings: dose 0.5-2 µM
[14] = tested on: Ca-Ski; assay: Induction of apoptosis in human Ca Ski cells assessed as late apoptotic cells at 0.5 uM preincubated with Z-VAD-FMK for 1 hrs followed by compound addition and measured after 24 hrs by Annexin V-FITC/PI staining based flow cytometric analysis (reference value: 5.30 %); assay type: functional
[15] = tested on: SiHa; assay: Induction of morphological changes in human SiHa cells assessed as increase in appearance of round cells at 0.5 to 2 uM by microphotographic analysis; assay type: functional, cell-based; settings: dose 0.5-2 µM
[16] = tested on: HeLa; assay: Inhibition of cell migration in human HeLa cells at 0.6 to 1.2 uM measured after 48 hrs by cell scratch assay; assay type: functional, cell-based; settings: dose 0.6-1.2 µM
[17] = tested on: HeLa; assay: Effect on cleaved PARP expression level in Bax deficient human HeLa cells at 0.6 to 1.2 uM incubated for 24 hrs by Western blot analysis; assay type: functional, cell-based; settings: dose 0.6-1.2 µM
[18] = Toxicity in female BALB/c mouse xenografted with human HeLa cells assessed as effect on liver at 4 to 8 mg/kg administered every four days and measured after 26 days by H and E staining based analysis; assay type: organism-based; settings: in vivo, 624 h, dose 4-8 mg/kg, time 26 day
[19] = tested on: HeLa; assay: Effect on ATG16L1 protein level in human HeLa cells at 0.6 to 1.2 uM incubated for 24 hrs by Western blot analysis; assay type: functional, cell-based; settings: dose 0.6-1.2 µM
[20] = tested on: HeLa; assay: Induction of apoptosis in human HeLa cells assessed as late apoptotic cells at 0.6 uM preincubated with Z-VAD-FMK for 1 hrs followed by compound addition and measured after 24 hrs by Annexin V-FITC/PI staining based flow cytometric analysis (reference value: 1.02 %); assay type: functional
[21] = tested on: SiHa; assay: Antiproliferative activity against human SiHa cells assessed as inhibition of cell growth at 0.4 to 1.6 uM by CCK8 assay; assay type: functional, cell-based; settings: dose 0.4-1.6 µM, time 6.0 day

IC50 [3]: 31.5 µM
Compound: COc1cccc(Nc2ccnc3cc(OCCCCCOc4ccc5c(Nc6cccc(OC)c6)ccnc5c4)ccc23)c1
Activity [1]: Active
Activity [2]: inactive
inhibition [4]: Active
Activity [5]: 4.11%
Activity [6]: Dose-dependent-effect
IC50 [6]: 0.775 µM
Activity [7]: inactive
Activity [8]: Moderate_effect
Activity [9]: 1.7%
Activity [10]: inactive
Activity [11]: Minimal_effect
Activity [12]: Active
Activity [13]: Active
Activity [14]: 17.3%
Activity [15]: Active
inhibition [16]: Active
Activity [17]: inactive
Activity [18]: Non-toxic
Activity [19]: inactive
Activity [20]: 2.8%
Activity [21]: Time-dependent-effect

— ChEMBL document CHEMBL6115007, “Synthesis and in vitro and in vivo evaluation of novel bivalent quinolines as antitumor agents via targeting autophagy in cervical cancer” (Eur J Med Chem, 2025)
